Results as given in patent US20220273793A1, “HORSE IL-31 INDUCED PRURITUS MODEL” (priority 2021, published 2022).
Values joined by “and” are separate entries in the source; they are usually repeats but may differ in a detail not shown here. Equal entries are not always repeated.

How the values were obtained:
equine IL-31 = experiment: Equine challenge study using the IL-31 itch model after IL-31 mimotope vaccines; format: in vivo, Horse; details: for 1st Challenge Score (pruritus score): CRM197 conjugate 25 μg/dose, SP oil + CpG, IL-31 challenge Day 14 post-boost; for 1st Challenge Score (pruritus score) / Percent Change, 1st Challenge vs Historical Score / Percent Change, 2nd Challenge vs Historical Score / 2nd Challenge Score (pruritus score): individual horses; for 1st Challenge Average % Change in pruritus scores / Percent Change, 1st Challenge vs Historical Score: Day 14 post-boost; for 1st Challenge Average % Change in pruritus scores / 2nd Challenge Average % Change in pruritus scores: group mean; for 2nd Challenge Average % Change in pruritus scores / Percent Change, 2nd Challenge vs Historical Score: Day 105 post-boost; for 2nd Challenge Score (pruritus score): IL-31 challenge Day 105 post-boost; for reduction in itch (relative to historic scores): vaccinated horses, after 105 days of the final booster dose
Text: Based on the high antibody titers elicited by horses vaccinated with CRM197 conjugated IL 31 mimotopes (FIG. 4), horses from the serology studies were utilized in a challenge study using the IL-31 itch model developed by the present inventors. Selected horses were vaccinated with an additional boost of the corresponding mimotope vaccines, after conclusion of the serology study, and were challenged with IL-31 at Day 14 after the final boost and at Day 105 after the final boost.
Various candidate IL-31 mimotope constructs were evaluated, including ZTS-7240 (comprising SEQ ID NO:4) mimotope (constrained) corresponding to the 1505 region and ZTS-241 (comprising SEQ ID NO:6) mimotope (linear) corresponding to the A helix of the IL-31 homology model (FIG. 2). Study design is outlined in Table 6 below:
There were no treatment groups T02 and T04 assigned in this study in order to continue to keep the group designations of respective horses from the first serology study. One horse each from treatment groups T02 and T04 from the first serology were used in treatment group T08 as negative controls (No booster dose given; challenged on Day 14 and Day 105 along with other treatment groups).

IL-31 induced pruritus = experiment: Oclacitinib maleate in equine model of IL-31 induced pruritus; format: in vivo, Horse; set-up: key to Post Treatment Score (pruritus): cumulative count of yes responses (1 per behavior per 1-min interval); details: for Post Treatment Score (pruritus) / % Change vs Historical Score: individual horses
Procedure: Horses were administered either carrier only or oclacitinib maleate tablets at a determined number of hours prior to IL-31 challenge administration. […] Blood samples for pharmacokinetic analysis were collected at the time of IL-31 administration and immediately following the post-challenge observation period. Due to limited number of observation stalls, horses were challenged in batches. Batch 1 will include T01 (n=2)+T02 (n=5). Batch 2 will include T01 (n=2)+T03 (n=5). Batch 3 will include T01 (n=2)+T04 (n=5) (Table 9)
Signs of pruritus in horses include: • Biting or scratching at self • Rubbing against objects • Feet stomping • Tail flicking • Head or body shaking • Rolling • Twitching of skin
A “yes” response was indicated by marking a “1” in the space provided for the specific behavior during the one minute interval. The cumulative number of yes responses per behavior were added to determine a cumulative pruritus score for each horse.

Horse = experiment: Equine IL-31 induced pruritus model via IL-31 challenge (dose finding); format: in vivo
Procedure: Three to eight horses were tested at one time. Dose level depended on the pruritic response from the previous dosing group. The final desired dose was repeated. The final study design was as follows (Table 1):
Observations of normal pruritic behavior (baseline pruritus scores) were made prior to the administration of IL-31 challenge. The horses were scored the same was as post challenge observations except no IL-31 challenge was administered and observation of normal pruritic behavior was made for 30 minutes.
Following baseline pruritus score, horses were administered the IL-31 challenge. IL-31 challenge was administered intravenously to each animal via a jugular vein. The horse ID and time of administration was recorded. Recording of pruritic activity began approximately 15 to 25 minutes after the last of the horses is administered the IL-31 challenge (Table 2 (A to F) below and FIG. 1).
Classical signs of pruritus in horses include: • Biting or scratching at self • Rubbing against objects • Feet stomping • Tail flicking • Head or body shaking • Rolling • Twitching of skin
A “yes” response was indicated by marking a “1” and a “no” response was indicated by marking a “0” during the one minute interval. The cumulative number of yes responses were added to determine a cumulative Pruritus Score for each horse.

[1] = IL-31 0.05 μg/kg IV, average (Table 2E)
[2] = IL-31 0.1 μg/kg IV, average (Table 2D)
[3] = IL-31 0.25 μg/kg IV, average (Table 2C)
[4] = IL-31 0.25 μg/kg IV, repeat in second set of horses, average (Table 2F)
[5] = IL-31 0.25 μg/kg IV, repeat in second set of horses, individual horses (Table 2F)
[6] = IL-31 0.5 μg/kg IV, average (Table 2B)

## Ac-CGSGGPIYQLQPKEIQAIIVELQNLSKK-NH2 (not fully specified; printed as Ac-CGSGGPIYQLQPKEIQAIIVELQNLSKK-NH2; numbers in words are those of the source; also: CRM197 conjugate) [ZTS-7241, tested as CRM197 conjugate with SP oil + CpG]
Equine IL-31; T03, T05, T06, T07: IM
  1st Challenge Score (pruritus score): 12 and 5 and 38
  1st Challenge Average % Change in pruritus scores: −82.18%
  Percent Change, 1st Challenge vs Historical Score: −86.44% and −94.87% and −65.23%
  2nd Challenge Average % Change in pruritus scores: −68.70%
  Percent Change, 2nd Challenge vs Historical Score: −87.57% and −48.72% and −69.81%
  2nd Challenge Score (pruritus score): 11 and 50 and 33
Equine IL-31
  reduction in itch (relative to historic scores): 68%

## Ac-CGSGKEKGVQKFDS-NH2 (not fully specified; printed as Ac-CGSGKEKGVQKFDS-NH2; numbers in words are those of the source; also: CRM197 conjugate) [ZTS-7242, tested as CRM197 conjugate with SP oil + CpG]
Equine IL-31; T03, T05, T06, T07: IM
  1st Challenge Score (pruritus score): 53 and 45 and 54
  1st Challenge Average % Change in pruritus scores: −20.58%
  Percent Change, 1st Challenge vs Historical Score: −23.96% and −17.43% and −20.35%
  2nd Challenge Average % Change in pruritus scores: 46.28%
  Percent Change, 2nd Challenge vs Historical Score: 22.94% and 69.62%
  2nd Challenge Score (pruritus score): 67 and 115

## Ac-CGSGNSSAILPYFKAISPSLNNDKSLYIIEQLDKLNF-NH2 (not fully specified; printed as Ac-CGSGNSSAILPYFKAISPSLNNDKSLYIIEQLDKLNF-NH2; numbers in words are those of the source; also: CRM197 conjugate) [ZTS-765, tested as CRM197 conjugate with SP oil + CpG]
Equine IL-31; T01, SC
  1st Challenge Score (pruritus score): 17 and 11
  1st Challenge Average % Change in pruritus scores: −82.12%
  Percent Change, 1st Challenge vs Historical Score: −74.81% and −89.42%
  2nd Challenge Average % Change in pruritus scores: −25.88%
  Percent Change, 2nd Challenge vs Historical Score: −39.26% and −12.50%
  2nd Challenge Score (pruritus score): 41 and 91
Equine IL-31; T03, T05, T06, T07: IM
  1st Challenge Score (pruritus score): 4 and 33 and 21
  1st Challenge Average % Change in pruritus scores: −77.62%
  Percent Change, 1st Challenge vs Historical Score: −94.54% and −66.33% and −72.00%
  2nd Challenge Average % Change in pruritus scores: −45.03%
  Percent Change, 2nd Challenge vs Historical Score: −23.60% and −40.82% and −70.67%
  2nd Challenge Score (pruritus score): 56 and 58 and 22

## Ac-C[Ahx]C(mT2b)TEVSMPTDNFERKRFILTC(mT2b)-NH2 [ZTS-7240]
Equine IL-31; T03, T05, T06, T07: IM
  1st Challenge Score (pruritus score): 6 and 21 and 18
  1st Challenge Average % Change in pruritus scores: −84.61%
  Percent Change, 1st Challenge vs Historical Score: −94.13% and −76.74% and −82.94%
  2nd Challenge Average % Change in pruritus scores: −84.27%
  Percent Change, 2nd Challenge vs Historical Score: −92.18% and −83.39% and −77.25%
  2nd Challenge Score (pruritus score): 8 and 15 and 24
Equine IL-31
  reduction in itch (relative to historic scores): 80%

## Oclacitinib maleate
IL-31 induced pruritus; T02: 0.25 mg/kg oral, IL-31 0.25 mcg/kg challenge 1.5 hr after dosing
  Post Treatment Score (pruritus): 21 and 94 and 91 and 86 and 46
IL-31 induced pruritus; T02: 0.25 mg/kg oral, challenge 1.5 hr after dosing
  % Change vs Historical Score: −68.89% and 6.21% and −5.70% and −9.47% and −31.85%
IL-31 induced pruritus; T02: 0.25 mg/kg, challenged 1.5 hours after treatment
  reduction in average pruritic score compared to the placebo group (T01): 30%
IL-31 induced pruritus; T03: 0.25 mg/kg oral, IL-31 0.25 mcg/kg challenge 21.5 hr after dosing
  Post Treatment Score (pruritus): 49 and 90 and 86 and 50 and 72
IL-31 induced pruritus; T03: 0.25 mg/kg oral, challenge 21.5 hr after dosing
  % Change vs Historical Score: −3.92% and 65.14% and 17.81% and −29.08% and −5.88%
IL-31 induced pruritus; T03: 0.25 mg/kg, challenged 21.5 hours after treatment
  reduction in average pruritic score compared to the placebo group (T01): 29%
IL-31 induced pruritus; T04: 0.25 mg/kg oral, IL-31 0.25 mcg/kg challenge 4.5 hr after dosing
  Post Treatment Score (pruritus): 49 and 87 and 46 and 53 and 99
IL-31 induced pruritus; T04: 0.25 mg/kg oral, challenge 4.5 hr after dosing
  % Change vs Historical Score: −55.05% and −22.32% and −54.23% and −45.92% and −6.16%
IL-31 induced pruritus; T04: 0.25 mg/kg, challenged 4.5 hours after treatment
  reduction in average pruritic score compared to the placebo group (T01): 31%

B1: IL-31: recombinant histidine tagged equine IL-31 polypeptide, SEQ ID NO: 10 less signal sequence, used as IV challenge material (protein)
chain: GPIYQLQPKEIQAIIVELQNLSKKLLDDYLNKEKGVQKFDSDLPSCFTSDSQAPGNINSSAILPYFKAISPSLNNDKSLYIIEQLDKLNFQNAPETEVSMPTDNFERKRFILTILRWFSNCLEHRAQHHHHHH
Horse; IL-31 0.05 μg/kg IV, 120 min observation, individual horses (Table 2E)
  Post Challenge Pruritus Score/120: 50 and 36 and 67 and 43 and 25 and 42 and 45 and 37
Horse; [1]
  Post Challenge Pruritus %, Average: 36%
  Post Challenge Pruritus Score/120, Average: 43.1
Horse; IL-31 0.05 μg/kg IV, individual horses (Table 2E)
  Post Challenge Pruritus %: 42% and 30% and 56% and 36% and 21% and 35% and 38% and 31%
Horse; IL-31 0.1 μg/kg IV, 120 min observation, individual horses (Table 2D)
  Post Challenge Pruritus Score/120: 62 and 72 and 115 and 74 and 71 and 86 and 96 and 103
Horse; [2]
  Post Challenge Pruritus %, Average: 71%
  Post Challenge Pruritus Score/120, Average: 84.9
Horse; IL-31 0.1 μg/kg IV, individual horses (Table 2D)
  Post Challenge Pruritus %: 52% and 60% and 96% and 62% and 59% and 72% and 80% and 86%
Horse; IL-31 0.25 μg/kg IV, 120 min observation, individual horses (Table 2C)
  Post Challenge Pruritus Score/120: 95 and 84 and 109 and 81 and 86 and 113 (2×)
Horse; [3]
  Post Challenge Pruritus %, Average: 81%
  Post Challenge Pruritus Score/120, Average: 97.3
Horse; IL-31 0.25 μg/kg IV, individual horses (Table 2C)
  Post Challenge Pruritus %: 79% and 70% and 91% and 68% and 72% and 94% (2×)
Horse; [4]
  Post Challenge Pruritus %, Average: 48%
  Post Challenge Pruritus Score/120, Average: 57.6
Horse; [5]
  Post Challenge Pruritus %: 47% and 17% and 9% and 73% and 57% and 72% and 43% and 68%
  Post Challenge Pruritus Score/120: 56 and 20 and 11 and 87 and 68 and 86 and 52 and 81
Horse; IL-31 0.5 μg/kg IV, 120 min observation, individual horses (Table 2B)
  Post Challenge Pruritus Score/120: 120 (2×) and 70 and 117 and 106 and 93 and 110
Horse; [6]
  Post Challenge Pruritus %, Average: 88%
  Post Challenge Pruritus Score/120, Average: 105.1
Horse; IL-31 0.5 μg/kg IV, individual horses (Table 2B)
  Post Challenge Pruritus %: 100% (2×) and 58% and 98% and 88% and 78% and 92%
Horse; IL-31 1.0 μg/kg IV, 120 min observation, average (Table 2A)
  Post Challenge Pruritus Score/120, Average: 114.7
Horse; IL-31 1.0 μg/kg IV, 120 min observation, individual horses (Table 2A)
  Post Challenge Pruritus Score/120: 120 (2×) and 104
Horse; IL-31 1.0 μg/kg IV, average (Table 2A)
  Post Challenge Pruritus %, Average: 96%
Horse; IL-31 1.0 μg/kg IV, first three horses, given diphenhydramine
  Animal health observations after post challenge observation period: uncomfortable level of pruritus and needed treatment
Horse; IL-31 1.0 μg/kg IV, individual horses (Table 2A)
  Post Challenge Pruritus %: 100% (2×) and 87%
Horse; IL-31 0.05-1.0 μg/kg IV, horses
  Animal health observations: adverse events of anaphylaxis: No adverse events of anaphylaxis were noted
